We go through one compound from paper PMC4541410 (Scientific Reports, 2015).

The Cmax is the peak of the concentration-time curve.

Where two headings read alike, the source gives them in different places. Where a SMILES comes first, the peptide text is derived from it.

Data set [1] relates to NP1525 (A/E). It counts as cell-based. The conditions noted are these: primary HIV-1 isolate, subtype A/E; read-out: IC50 (nM), infection by primary isolate NP1525 (A/E).
For data set [2], the system named is 93BR020 (F). It counts as cell-based. The conditions noted are these: primary HIV-1 isolate, subtype F; read-out: IC50 (nM), infection by primary isolate 93BR020 (F).
Data set [3] deals with T20-resistant HIV-1 variant V38A/N42D. Format: cell-based.
Data set [4] relates to T20-resistant HIV-1 variant V38A/N42T. It counts as cell-based.
The subject of data set [5] is HIV-1IIIB (subtype B, X4). In words: Inhibition of HIV-1 IIIB infection by peptides in the presence of sera from HIV-1-infected patients. It counts as cell-based. The conditions noted are these: for IC50: MT-2 cells, triplicate, mean ± SD. As to the method: Inhibition of peptides on HIV-1IIIB (subtype B, X4)infection in the presence of HIV-1-infected patients’ sera was determined as previously described. Briefly, each peptide was mixed with serially diluted serum from an HIV-1-infected patient at room temperature for 30 min. Next, the mixture of peptide/serum and HIV-1 (100 TCID50) were added to MT-2 cells (1 × 10^5/ml) in RPMI 1640 medium containing 10% FBS. After incubation at 37 °C overnight, the culture supernatants were replaced with fresh culture medium.

For data set [6] the following is noted: rat liver homogenate (100 mg wet tissue/2.5 ml PBS pH 7.2, 9,000 g supernatant), peptide 10 μg/ml, 37 °C, LC-MS; triplicate. As to the method:
Chromatographic analyses were performed using an ODS-C8 column (5 μm, 100 mm × 2.0 mm ID) kept at ambient temperature. The mobile phase was composed of acetonitrile-water-formic acid in the ratio of 50:50:0.1 (v/v/v) at a flow rate of 0.3 mL/min. The sample injection volume was 10 μL. Acetonitrile was HPLC grade and other chemical reagents and solvents were analytical grade. A Thermo TSQ Quantum Discovery MAX triple-quadruple tandem mass spectrometer equipped with ESI source (San Jose, CA) and Surveyor LC pump were used for LC-MS analysis. Data acquisition and data processing were performed by using Xcalibur software and LCQuan 2.0 data analysis program (Thermo Finnigan), respectively. Optimized MS parameters were as below: 4800 V spray voltage, 40.0 psi sheath gas pressure, 1.0 psi auxiliary valve flow and 300 °C of capillary temperature. When running collision-induced dissociation (CID), the pressure was set to 1.5 mTorr.
The supernatants were collected.

Data set [7] concerns 92TH009 (A/E). The conditions noted are these: read-out: IC50 (nM), infection by primary isolate 92TH009 (A/E); primary HIV-1 isolate, subtype A/E.

Regarding `CC[C@H](C)[C@H](NC(=O)[C@H](CO)NC(=O)[C@H](CCC(=O)O)NC(=O)[C@H](CCC(=O)O)NC(=O)[C@H](CCC(N)=O)NC(=O)[C@H](CCCCN)NC(=O)[C@H](CCCCN)NC(=O)[C@@H](NC(=O)[C@H](CCC(N)=O)NC(=O)[C@H](CCC(=O)O)NC(=O)[C@H](CCC(=O)O)NC(=O)[C@@H](NC(=O)[C@H](CCCCN)NC(=O)[C@H](CCCCN)NC(=O)[C@@H](NC(=O)[C@H](CC(C)C)NC(=O)[C@H](CCC(=O)O)NC(=O)[C@H](CCC(=O)O)NC(=O)[C@H](CO)NC(=O)[C@H](CCCCN)NC(=O)[C@H](CCCCN)NC(=O)[C@@H](NC(=O)[C@H](CC(C)C)NC(=O)[C@H](CCC(=O)O)NC(=O)[C@H](CCC(=O)O)NC(=O)[C@@H](NC(=O)[C@H](CCCCN)NC(=O)[C@H](CCCCN)NC(=O)[C@H](CC(=O)O)NC(=O)[C@H](Cc1c[nH]c2ccccc12)NC(=O)[C@H](CCC(=O)O)NC(=O)[C@H](CCC(=O)O)NC(=O)[C@H](Cc1c[nH]c2ccccc12)NC(=O)[C@@H](NC(=O)[C@H](CCSC)NC(C)=O)[C@@H](C)O)[C@@H](C)CC)[C@@H](C)CC)[C@@H](C)CC)[C@@H](C)CC)[C@@H](C)CC)C(=O)N[C@@H](CCCCN)C(=O)N[C@@H](CCCCN)C(N)=O` [AP3] (Ac-MTWEEWDKKIEELIKKSEELIKKIEEQIKKQEESIKK-NH2), the IC50 in data set [1] came to 32.3 ± 8.8 nM; in data set [2], 19.9 nM; in data set [3], 31.3 ± 6.62 nM; in data set [4] it was 90 ± 21.5 nM; in data set [5] (in presence of serum of HIV-1-infected patient HPS-1, read-out: IC50 (nM), HIV-1 IIIB infection, HPS-1) it was 17.7 ± 4.3 nM; in data set [5] (in presence of serum of HIV-1-infected patient HPS-2, read-out: IC50 (nM), HIV-1 IIIB infection, HPS-2) it was 5.1 ± 0.7 nM. Besides, the IC50 was 4.2 ± 0.4 nM in data set [5] (in presence of serum of HIV-1-infected patient HPS-3, read-out: IC50 (nM), HIV-1 IIIB infection, HPS-3); 2 ± 0.6 nM in data set [5] (in presence of serum of HIV-1-infected patient HPS-4, read-out: IC50 (nM), HIV-1 IIIB infection, HPS-4); 5.1 ± 0.8 nM in data set [5] (in presence of serum of HIV-1-infected patient HPS-5, read-out: IC50 (nM), HIV-1 IIIB infection, HPS-5); 27.8 ± 5.5 nM in data set [7]. Also, the “Fold change of IC50, HPS-1” value in data set [5] (HPS-1 relative to N) was 0.7. Further, the “Fold change of IC50, HPS-2” value in data set [5] (HPS-2 relative to N) came to 0.2. Besides, the “Fold change of IC50, HPS-3” value in data set [5] (HPS-3 relative to N) was 0.2. In data set [5] (HPS-4 relative to N), the “Fold change of IC50, HPS-4” value is given as 0.1. The “Fold change of IC50, HPS-5” value in data set [5] (HPS-5 relative to N) amounted to 0.2. In data set [6], the “in vitro metabolic stability in liver homogenate” value is “significantly enhanced in vitro metabolic stability over T20”. The “fold longer in vivo elimination half-life than T20” value (AP3 versus T20, SD rat, i.v. 1 mg/kg) is given as “about 2.8 fold”. Moreover, the Cmax (intravenous 1 mg/kg, male SD rats, n = 2, plasma by sandwich ELISA, PK Solver) was determined as 289.57 µg/mL.
